34 compounds from US20240383882A1 (Ecstasy LLC, priority 2020, published 2024) can be followed below.

Structures can show the parent of a compound that is named as a salt.

The subject of one test is male C57BL/6 mice. In words: 55° C. warm-water tail-flick test (antinociception). As to conditions: Mus musculus, sc, 0.5 h, compounds of Table I; s.c.; 30 min; 55° C. water; configuration tested as in Table II; read-out: ED50 (mg/kg) at 30 min on C57BL/6 mice in Warm-water Tail-flick Test. It counts as in vivo. The method, boiled down:
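Subcutaneous dosing, then tail immersion in 55° C water at 30–120 min; latency normalized as 100×(test−control)/(20−control), using a 20 s cutoff, after excluding mice not responding within 2 s at baseline. Values expressed as ED50 (mg/kg).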
In the case of `Cc1ccc(C(C)(C)N2CCC(CCc3ccc(F)s3)(c3nccn3C)C2)cn1` (single isomer, unassigned) [Compound 114], the ED50 is at most 30 mg/kg. Consider `Cc1ccc(C(C)(C)N2CCC(CCc3ccc(F)s3)(CNS(=O)(=O)N(C)C)C2)cn1` (single isomer, unassigned) [Compound 121], for which the ED50 is at most 30 mg/kg. With `Cc1ccc(C(C)(C)N2CCC(CCc3ccc(F)s3)(C(NS(C)(=O)=O)c3ccccn3)C2)cn1` (single isomer, unassigned) [Compound 319], the ED50 was at most 30 mg/kg. On to `CCOC(c1ccccc1)C1(CCc2ccc(F)s2)CCN(C(C)(C)c2ccc(C)nc2)C1` (single isomer, unassigned) [Compound 97, 5-(2-((R or S)-3-((R or S)-ethoxy(phenyl)methyl)-3-(2-(5-fluorothiophen-2-yl)ethyl)pyrrolidin-1-yl)propan-2-yl)-2-methylpyridine citrate], for which the ED50 is at most 30 mg/kg.

Turning to `Cc1ccc(C(C)(C)N2CCC(CCc3ccc(F)s3)(CNS(=O)(=O)C(C)C)C2)cn1` (single isomer, unassigned) [Compound 320], the ED50 was at most 30 mg/kg. The same measure, in the same setting: under `CC(C)(c1ccccn1)N1CC[C@](CCc2ccc(C#N)cc2)([C@@H]2CCCO2)C1` [Compound 41, 4-(2-((S)-1-(2-(pyridin-2-yl)propan-2-yl)-3-((S)-tetrahydrofuran-2-yl)pyrrolidin-3-yl)ethyl) benzonitrile] stands at most 30 mg/kg. Take `CCOCC1(Cn2cnc3cnccc32)CCN(C(C)(C)c2ccc(C)nc2)C1` (single isomer, unassigned) [Compound 85, (R or S)-1-((3-(ethoxymethyl)-1-(2-(6-methylpyridin-3-yl)propan-2-yl)pyrrolidin-3-yl)methyl)-1H-imidazo[4,5-c]pyridine citrate]: the ED50 is at most 30 mg/kg.

Still in this test, the particulars now being: Mus musculus; half maximal effective dose in mice; using one of: warm water tail-flick test, spared nerve injury, chronic constriction injury, or Complete Freund's adjuvant induced inflammatory pain (not stated which per compound); read-out: Biological Activity (ED50).
On to `CCOC[C@]1(CCc2ccc(F)cc2)CCN(Cc2cnc(OC)cc2C#N)C1` [Compound 2, (R)-5-((3-(ethoxymethyl)-3-(4-fluorophenethyl)pyrrolidin-1-yl)methyl)-2-methoxy-isonicotino nitrile], for which the ED50 is at most 30 mg/kg.

In the case of `CC(C)(c1ccccn1)N1CC[C@](CO)(CCc2ccc(C#N)s2)C1` [Compound 147, (R)-5-(2-(3-(hydroxymethyl)-1-(2-(pyridin-2-yl)propan-2-yl)pyrrolidin-3-yl)ethyl)thiophene-2-carbonitrile], the ED50 is above 50 mg/kg. `CCOC[C@]1(CCc2ccc(C#N)cc2)CCN(C(C)c2ccnnc2)C1` (stereo partly drawn) [Compound 25, 4-(2-((3R)-3-(ethoxymethyl)-1-(1-(pyridazin-4-yl)ethyl)pyrrolidin-3-yl)ethyl)benzonitrile]: the ED50 was at most 30 mg/kg. On the same count and under the same terms, under `COc1ccc(CN2CC[C@@](CCc3ccc(C#N)cc3)(C(O)C(F)(F)F)C2)cn1` (single isomer, unassigned) [Compound 70] stands above 50 mg/kg. On the same count and under the same terms, under `CC(C)(c1ccc(S(C)(=O)=O)cc1)N1CC[C@@](CCc2ccc(F)cc2)(C(O)C(F)(F)F)C1` (single isomer, unassigned) [Compound 50] stands above 50 mg/kg; under `CC1(C)COC1[C@]1(CCc2ccc(C#N)cc2)CCN(Cc2ccc(C#N)cc2)C1` (single isomer, unassigned) [Compound 204, 4-(2-((R)-1-(4-cyanobenzyl)-3-((R or S)-3,3-dimethyloxetan-2-yl)pyrrolidin-3-yl)ethyl) benzonitrile], at most 30 mg/kg. On to `CC(C)(c1ccccn1)N1CC[C@@](CCc2ccc(C#N)cn2)(COCc2ccccc2)C1` [Compound 113, (R)-6-(2-(3-((benzyloxy)methyl)-1-(2-(pyridin-2-yl)propan-2-yl)pyrrolidin-3-yl)ethyl) nicotinonitrile], for which the ED50 was above 50 mg/kg. Same read-out and setting: in the case of `CCOC[C@]1(CCc2ccc(C#N)cc2)CCN(C(C)(C)c2ccccn2)C1` [Compound 132, (R)-4-(2-(3-(ethoxymethyl)-1-(2-(pyridin-2-yl)propan-2-yl)pyrrolidin-3-yl)ethyl) benzonitrile] it was above 50 mg/kg; in that of `CC(C)(O)[C@@]1(CCc2ccc(C#N)cc2)CCN(C(c2cccnc2)c2cccnc2)C1` [Compound 63], above 50 mg/kg. Regarding `CC(C)(c1ccccn1)N1CC[C@@](CCc2ccc(C#N)cc2)(c2ncc[nH]2)C1` [Compound 107, (R)-4-(2-(3-(1H-imidazol-2-yl)-1-(2-(pyridin-2-yl)propan-2-yl)pyrrolidin-3-yl)ethyl) benzonitrile], the ED50 is above 50 mg/kg.

Consider `CCOC(C(F)(F)F)(C(F)(F)F)[C@]1(/C=C/c2cnc3ccccc3n2)CCN(C(C)(C)c2ccc(C)nc2)C1` [Compound 187, (S,E)-2-(2-(3-(2-ethoxy-1,1,1,3,3,3-hexafluoropropan-2-yl)-1-(2-(6-methylpyridin-3-yl)propan-2-yl)pyrrolidin-3-yl)vinyl)quinoxaline], for which the ED50 was above 50 mg/kg. With `CCOC[C@@]1(CCc2ccc(C#N)cc2)CCN(C(c2cccnc2)c2cccnc2)C1` [Compound 27, (S)-4-(2-(1-(di(pyridin-3-yl)methyl)-3-(ethoxymethyl)pyrrolidin-3-yl)ethyl) benzonitrile], the ED50 is above 50 mg/kg.

In the case of `CCOC[C@]1(CCc2ccc(F)cc2)CCN(Cc2cccnc2C(N)=O)C1` [Compound 5], the ED50 is above 50 mg/kg. `CC(C)(c1ccccn1)N1CC[C@@](CCc2ccc(S(C)(=O)=O)cc2)(C2CCCO2)C1` (single isomer, unassigned) [Compound 67]: the ED50 was above 50 mg/kg.

As for `Cc1ccnc(C)c1CN1CC[C@@](CCc2ccc(C#N)cc2)(C(O)C(F)(F)F)C1` (single isomer, unassigned) [Compound 227, 4-(2-((R)-1-((2,4-dimethylpyridin-3-yl)methyl)-3-((R or S)-2,2,2-trifluoro-1-hydroxyethyl)pyrrolidin-3-yl)ethyl) benzonitrile], the ED50 is above 50 mg/kg. `CC(C)(c1ccccn1)N1CC[C@](/C=C/c2ccc(S(C)(=O)=O)cc2)(C2CCCO2)C1` (single isomer, unassigned) [Compound 218, 2-(2-((R)-3-((E)-4-(methylsulfonyl)styryl)-3-((R or S)-tetrahydrofuran-2-yl)pyrrolidin-1-yl)propan-2-yl)pyridine]: the ED50 was above 50 mg/kg. For the compound `CC(C)(c1ccccn1)N1CC[C@@](CCc2ccc(C#N)cc2)(c2nnco2)C1` [Compound 124, (R)-4-(2-(3-(1,3,4-oxadiazol-2-yl)-1-(2-(pyridin-2-yl)propan-2-yl)pyrrolidin-3-yl)ethyl) benzonitrile], the ED50 was above 50 mg/kg. Take `CC(C)(c1ccc(C(F)(F)F)nc1)N1CC[C@@](CCc2ccc(C#N)cc2)(C(C)(C)O)C1` [Compound 140, (R)-4-(2-(3-(2-hydroxypropan-2-yl)-1-(2-(6-(trifluoromethyl)pyridin-3-yl)propan-2-yl)pyrrolidin-3-yl)ethyl) benzonitrile]: the ED50 was above 50 mg/kg. Consider `Cc1ccc(CN2CC[C@@](CCc3ccc(C#N)cc3)(C3OCC3(F)F)C2)cn1` (single isomer, unassigned) [Compound 198, 4-(2-((R)-3-((R or S)-3,3-difluorooxetan-2-yl)-1-((6-methylpyridin-3-yl)methyl)pyrrolidin-3-yl)ethyl) benzonitrile], for which the ED50 was at most 30 mg/kg.

Take `CC(C)(c1ccccn1)N1CC[C@](CCc2ccc(C#N)cc2)([C@@H]2CCCO2)C1` [Compound 41, 4-(2-((S)-1-(2-(pyridin-2-yl)propan-2-yl)-3-((S)-tetrahydrofuran-2-yl)pyrrolidin-3-yl)ethyl) benzonitrile]: the ED50 was above 50 mg/kg.

In the case of `CC(C)(c1ccccn1)N1CC[C@](CO)(CCc2cccc(C#N)c2)C1` [Compound 127, (R)-3-(2-(3-(hydroxymethyl)-1-(2-(pyridin-2-yl)propan-2-yl)pyrrolidin-3-yl)ethyl) benzonitrile], the ED50 is above 50 mg/kg. The same measure, in the same setting: under `CC(C)(c1ccccn1)N1CC[C@](CO)(CCc2ccc(C#N)cn2)C1` [Compound 114, (R)-6-(2-(3-(hydroxymethyl)-1-(2-(pyridin-2-yl)propan-2-yl)pyrrolidin-3-yl)ethyl) nicotinonitrile] stands above 50 mg/kg; under `CC(C)(c1ccccn1)N1CC[C@@](CCc2ccc3nonc3c2)(CS(C)(=O)=O)C1` [Compound 169, (R)-5-(2-(3-((methylsulfonyl)methyl)-1-(2-(pyridin-2-yl)propan-2-yl)pyrrolidin-3-yl)ethyl)benzo[c] [1,2,5]oxadiazole], above 50 mg/kg. `CC(C)(c1ccccc1)N1CC[C@](CCc2ccc(S(C)(=O)=O)cc2)([C@@H](O)C(F)(F)F)C1` [Compound 212, (R)-2,2,2-trifluoro-1-((S)-3-(4-(methylsulfonyl)phenethyl)-1-(2-phenylpropan-2-yl)pyrrolidin-3-yl)ethan-1-ol]: the ED50 was at most 30 mg/kg.

On to `CCOC(C(F)(F)F)(C(F)(F)F)[C@]1(CCc2ccc(C#N)s2)CCN(C(C)(C)c2ccccn2)C1` [Compound 161, (R)-5-(2-(3-(2-ethoxy-1,1,1,3,3,3-hexafluoropropan-2-yl)-1-(2-(pyridin-2-yl)propan-2-yl)pyrrolidin-3-yl)ethyl)thiophene-2-carbonitrile], for which the ED50 is above 50 mg/kg. Same read-out and setting: under `Cc1ccc(C(C)(C)N2CC[C@@](CCc3ccc(C#N)cc3)(COCc3ccccc3)C2)cn1` [Compound 17, (R)-4-(2-(3-((benzyloxy)methyl)-1-(2-(6-methylpyridin-3-yl)propan-2-yl)pyrrolidin-3-yl)ethyl) benzonitrile] stands at most 30 mg/kg; under `Cc1ccc(C(C)(C)N2CC[C@@](CCc3ccc(C#N)cc3)(CS(C)(=O)=O)C2)cn1` [Compound 19, (R)-4-(2-(1-(2-(6-methylpyridin-3-yl)propan-2-yl)-3-((methylsulfonyl)methyl)pyrrolidin-3-yl)ethyl)benzonitrile], at most 30 mg/kg.

Still in this test, the particulars now being: half maximal effective dose in mice; using one of: warm water tail-flick test, spared nerve injury, chronic constriction injury, or Complete Freund's adjuvant induced inflammatory pain (not stated which per compound).
`CC(C)(c1ccccn1)N1CC[C@@](CCc2ccc(C#N)s2)(C(O)C(F)(F)F)C1` (single isomer, unassigned) [Compound 153, 5-(2-((R)-1-(2-(pyridin-2-yl)propan-2-yl)-3-((R or S)-2,2,2-trifluoro-1-hydroxyethyl)pyrrolidin-3-yl)ethyl)thiophene-2-carbonitrile]: the “Biological Activity (ED50)” value is on record as “+ (+ indicates ED 50>50 mg/kg)”.
